In US20060025471A1, “Xanthenyl cubane analogs with activity at the metabotropic glutamate receptors” (priority 2002, published 2006):

What was measured:
[1] = test system: Cultured hippocampal pyramindal neurons; assay: In vitro anoxia study, neuronal cell death; format: cell-based; details: 30 minutes anoxia; counts 24 hours post anoxic exposure
From the text: The ability of a candidate compound to inhibit neuronal cell death can be examined using an in vitro anoxia study. […] A candidate compound can be administered to the neuronal cell culture at various time points prior to exposure to the anoxic condition to examine the prophylactic activity of the compound or during or after exposure to the anoxic condition to examine therapeutic activity of the compound. Suitable negative controls include, for example, buffer in place of the candidate compound.
The neuroprotective effects of a thioxanthenyl cubane (Compound 6) were examined using an in vitro anoxia study. Cultured hippocampal pyramindal neurons were exposed to anoxic conditions (oxygen free buffer) for 30 minutes. Twenty-four hours post anoxic exposure cell counts were conducted manually.

[2] = test system: rat global ischemia model; assay: Rat global ischemia model; format: in vivo; details: 1 mg/kg intra-peritoneal post ischemic insult
From the text: The neuroprotective effects of a candidate compound can also be evaluated in a number of in vivo animal models including, the rat global ischemia model. Briefly, two of the four cerebral arteries are permanently occluded and surgical silk is loosely placed around the remaining two cerebral arteries. Temporary tightening of the surgical silk leads to 4 vessel occlusion and temporary global ischemia. At various time points after ischemic insult the brain can be removed and examined for ischemic injury.
The neuroprotective effects of a thioxanthenyl cubane (Compound 6) were examined in vivo using the rat global ischemia model. Briefly, two of the four cerebral arteries are permanently occluded and surgical silk is loosely placed around the remaining two cerebral arteries. Temporary tightening of the surgical silk leads to 4 vessel occlusion and temporary global ischemia. Seven days post ischemic insult, the brain is removed and the CA1 region of the hippocampus, a region very suspectible to ischemic damage, is examined.

focal ischemia model = assay: Starch microsphere infusion focal ischemia model; format: in vivo, rat
Procedure: Alternatively, the starch microsphere infusion focal ischemia model can be used. Briefly, starch microspheres are injected unilaterally into one of the carotid arteries. Blood flow is temporarily occluded on the injected side for approximately 30 minutes. Reperfusion occurs after the initial starch clot is resolved. At various time points after ischemic insult the brain can be removed and examined for ischemic injury.
The compounds of the present invention have been evaluated in a rat model of focal ischemia which is similar to that seen in strokes in humans. Briefly, starch microspheres are injected unilaterally into one of the carotid arteries. Blood flow is temporarily occluded on the injected side for approximately 30 minutes. Reperfusion occurs after the initial starch clot is resolved. The test compound is administered either prophylactically before vessel occlusion or therapeutically post vessel occlusion.
The neuroprotective effects of a thioxanthenyl cubane (Compound 6) were further examined using a starch microsphere infusion focal ischemia model. Briefly, starch microspheres are injected unilaterally into one of the carotid arteries. Blood flow is temporarily occluded on the injected side for approximately 30 minutes. Reperfusion occurs after the initial starch clot is resolved.
Compound 6 was intra-peritoneally administered at dosages of 0.1, 1.0, and 10 mg/kg either prophylactically or therapeutically. The prophylactic dose schedule included a dose of Compound 6 administered 30 minutes prior to ischemic insult followed by doses at 30 minutes and 3 hours post insult. For therapeutic administration, Compound 6 was administered 3 hours post insult only. […] In addition to providing substantial neuroprotection, Compound 6 reduced the incidence of seizures following ischemic insult in a dose-dependent manner.

fear potentiated startle = assay: Fear potentiated startle model; format: in vivo, rats
From the text: The fear potentiated startle model permits measurement of learned fear of a stimulus that has been paired with repeated foot shocks. The effect of a candidate compound on fear potentiated startle can be compared with a known standard such as diazepam and a negative control (such as buffer only). The fear potentiated startle test can be conducted at various time points following administration of a candidate compound.
The anxiolytic properties of a thioxanthenyl cubane (Compound 6) were examined using the fear potentiated startle model. This model permits measurement of learned fear of a stimulus that has been paired with repeated foot shocks. The effect of Compound 6 on fear potentiated startle was compared with the known standard, diazepam. All tests were run 30 min after intraperitoneal drug administration. Compound 6 was administered at 1.0, 3.0, 10 and 15 mg/kg in rats.
The oral bioavailability and efficacy of a thioxanthenyl cubane (Compound 6) was studied using the fear potentiated startle model. Compound 6 was administered by gavage at a dose of 12 mg/kg. Following a 90 minute period allowed for drug absorption, the oral efficacy was examined using the fear potentiated startle model. As shown in FIG. 8 oral Compound 6 was effective in reducing the fear potentiated startle model.
The onset and duration of a thioxanthenyl cubane (Compound 6) was studied using the fear potentiated startle model. Thioxanthenyl cubane was administered by gavage at a dose of 15 mg/kg. The effect of oral Compound 6 on fear potentiated startle was examined at 30 minutes, 1, 2, 4, 6 and 8 hours post drug administration.

fear induced freezing = assay: Fear induced freezing model; format: in vivo, rat; details: diazepam at 3 mg/kg; for reduction in freezing, context alone: environment alone; for reduction in freezing, context plus tone: environment with conditioning sound
From the text: The anxiolytic properties of a candidate compound can also be examined using the fear induced freezing model. Briefly, this test relies on the induction of a well known effect in rats when they are challenged. The rat is subjected to a mild shock associated with a sound which results in the animal becoming very still when expecting that shock. The effect of a candidate compound on fear induced freezing can be compared with a known standard such as diazepam and a negative control (such as buffer only). The fear induced freezing test can be conducted at various time points following administration of the candidate compound.
The anxiolytic properties of a thioxanthenyl cubane (Compound 6) were also examined using the fear induced freezing model. Briefly, this test relies on the induction of a well known effect in rats when they are challenged. The rat is subjected to a mild shock associated with a sound which results in the animal becoming very still when expecting that shock.
The animal is placed in its home cage for acclimatization before being placed back in the test environment in the presence or absence of test compound. The reduction in freezing is used as a measure of anxiolysis. […] The second paradigm (context plus tone) produces a larger and more difficult to overcome anxiety.

social interaction = assay: Social interaction studies; format: in vivo, rat
Procedure: The effect of a candidate compound on social interaction can also be examined in rodents. Briefly, social interaction can be measured as follows: a strange intruder is introduced into the cage of an acclimatized treated rat and the number of times the rat either bites (# bites) or wrestles (# pins) the intruder is determined. The effect of a candidate compound on social interaction can be compared with a known standard such as diazepam and a negative control (such as buffer only). The social interaction test can be conducted at various time points following administration of the candidate compound.
The effect of a thioxanthenyl cubane (Compound 6) on social interaction was examined in rodents. Briefly, social interaction is measured as follows: a strange intruder is introduced into the cage of an acclimatized treated rat and the number of times the rat either bites (# bites) or wrestles (# pins) the intruder is determined. Compound 6 was administered at three doses and compared to saline and diazepam at 2 mg/kg.

elevated plus maze = assay: Elevated plus maze test; format: in vivo, rat
From the text: The anxiolytic properties of candidate compounds can be further evaluated using the elevated plus maze test. This test is dependent on the predisposition of rodents to remain in the dark and offers the choice between dark areas of the maze and the opportunity to explore lighted areas. The effect of a candidate compound on the elevated plus maze test can be compared with a known standard such as diazepam and a negative control (such as buffer only). The elevated maze plus test can be conducted at various time points following administration of the candidate compound.
To further examine the anxiolytic properties of a thioxanthenyl cubane (Compound 6), the elevated plus maze test was conducted. The elevated plus maze test is sensitive to benzodiazepine type anxiolytics while other anxiolytics such as the serotonin reuptake inhibitors (SSRIs) show poor efficacy in this test. This test is dependent on the predisposition of rodents to remain in the dark and offers the choice between dark areas of the maze and the opportunity to explore lighted areas.

[3] = Functional observational battery (side effect profile); format: in vivo
From the text: The side effect profile for an intra-peritoneally administered thioxanthenyl cubane (Compound 6) was examined and compared to diazepam using functional observational battery which is a series of observational markers designed to indicate level of impairment. The greater the functional observational battery score, the greater the impairment.

[4] = Asymmetric grid test (impairment of motor function); format: in vivo; details: 4 mg/kg; compared to the null experiment
Procedure: To further examine the side effect of profile of Compound 6 the assymmetric grid test was conducted to measure impairment of motor function. Briefly, in the assymetric grid test the animal is placed on one side of a grid pattern, designed to challenge the animals motor function. On the other side of the grid is the animal's home cage or a reward. As the animal enters the grid it is monitored for mistakes by a camera placed horizontally in line with the grid. The camera records the number of forelimb and hindlimb intrusions through the grid and the higher the number, the greater the impairment.

With `NC(CC1c2ccccc2Sc2ccccc21)(C(=O)O)C12C3C4C1C1C2C3C41C(=O)O` (stereo not shown) [Compound 6, 4-carboxycubane-1-thioxanthenyl-1-glycine] the “number of living cells in anoxic cultures relative to control anoxic cultures” value [1] was 2 to 3 times, the “ischemic damage to the CA1 region of the hippocampus vs untreated ischemic animals” value ([2]; 7 days) was “reduction in ischemic damage” and the “reduction in cell death” value ([2]; 7 days after the procedure) was “greater than 50%”. For the same compound, the “neuroprotection in treated animals” value (focal ischemia model; 0.1, 1.0, 10 mg/kg intra-peritoneal, no obvious dose dependence) was “Neuroprotection was observed in all animals”, the “ischemic damage to the hippocampus, especially retrospenial and piriform cortices, vs untreated ischemic animals” value (focal ischemia model; 0.1, 1.0, 10 mg/kg intra-peritoneal, prophylactic or therapeutic schedule) was “reduction in ischemic damage” and the “incidence of seizures following ischemic insult” value (focal ischemia model; 0.1-10 mg/kg intra-peritoneal, dose-dependent) was “reduced”. For the same compound, the “difference in neuronal cell number between ipsilateral and contralateral sides of the CA1 region” value (focal ischemia model; prophylactic or therapeutic treatment groups, 0.1, 1.0, 10 mg/kg) was “no significant difference”, the “oral efficacy on fear potentiated startle” value (fear potentiated startle; gavage 12 mg/kg, 90 minute absorption period) was “effective” and the “onset of effect on fear potentiated startle” value (fear potentiated startle; gavage 15 mg/kg) was 30 min. For the same compound, the “time of maximum effect on fear potentiated startle” value (fear potentiated startle; gavage 15 mg/kg) was 4 h, the “time of return of effect to base line” value (fear potentiated startle; gavage 15 mg/kg) was 8 h and the “effect on fear potentiated startle” value (fear potentiated startle; intraperitoneal 1.0, 3.0, 10 and 15 mg/kg, 30 min after administration) was “dose dependent reduction”. For the same compound, the “effect on fear potentiated startle at the highest dose” value (fear potentiated startle; intraperitoneal, highest dose (15 mg/kg)) was “tendency to reverse the effect”, the “dose of apparent maximum reduction in fear potentiated startle” value (fear potentiated startle; intraperitoneal, 30 min after administration) was 3 mg/kg and the “reduction in freezing, context alone” value (fear induced freezing) was “effective in both scenarios”. The “reduction in freezing, context plus tone” value (fear induced freezing) was “effective in both scenarios”, the “number of bites, compared with diazepam 2 mg/kg” value (social interaction; 10 mg/kg) was “equal reduction” and the “number of pins, compared with diazepam 2 mg/kg” value (social interaction; 10 mg/kg) was “equal reduction”. The “time spent in the exposed (open, light) area of the maze” value (elevated plus maze; 1 mg/kg) was “only a tendency” and the “impairment, functional observational battery score” value ([3]; in vivo) was “this level of impairment was not observed”.

With `CN1C(=O)CN=C(c2ccccc2)c2cc(Cl)ccc21` [diazepam, reference compound] the “effective oral dose level in fear potentiated startle” value (fear potentiated startle; oral dose response (FIG. 9)) was 7 mg/kg, the “reduction in freezing, context alone” value (fear induced freezing) was “effective” and the “reduction in freezing, context plus tone” value (fear induced freezing) was “only effective in the less stringent first paradigm”. The number of bites (social interaction; 2 mg/kg) was “clear reduction”, the number of pins (social interaction; 2 mg/kg) was “clear reduction” and the “time spent in the exposed (open, light) area of the maze” value (elevated plus maze; 2 mg/kg) was “clear increase”. For the same compound, the “impairment, functional observational battery score” value ([3]; intra-peritoneal, high doses (Compound 6 very high doses)) was “large degree of impairment” and the “number of forelimb and hindlimb mistakes” value [4] was “increases significantly”.
